Data reported in US20260015339A1, “CALIX[4]ARENES WITH HIGH ANTICANCER ACTIVITY” (UNIVERSITE GRENOBLE ALPES, priority 2023, published 2026).

How the values were obtained:
[1] = system: PC9 human lung cancer cells; assay: MTS cytotoxicity assay, combination with CuCl2, PC9; settings: Homo sapiens, 72 h, read-out: percentage of cell viability
Description: PC9 human lung cancer cells were seeded in 96-well plates together with the calix[4]arene of the formula (2) and CuCl2. Cells were grown in RPMI-1640 supplemented with GlutaMAX™ (Gibco™) and fetal calf serum (FCS, 10%) treated with a broad range of concentrations of the calix[4]arene of the formula (2) or/and CuCl2 from Merck. After 72 hours of treatment, the cytotoxicity was measured by means of the IC50 value, using the kit “CellTiter 96R AQuous One Solution Cell Proliferation Assay (MTS)” from Promega™. Following 30 minutes of incubation with the MTS reagent, the endpoint measurements were done in triplicate at 485 nm, using a fluorescence plate reader.

[2] = system: H322 lung carcinoma cell line; assay: Inhibition of H322 cell proliferation (cell count); format: cell-based; settings: 3 μM, until 72 hours
Description: The inhibition of a H322 lung carcinoma cell line proliferation by the calix[4]arene of the formula (2) was determined by exposure of said H322 lung carcinoma cell line to a concentration of 3 μM of the calix[4]arene of the formula (2) until 72 hours. The absolute number of cells were counted in the treated and untreated conditions before treatment (N0) and after 72 hours (Nt).
The FIG. 3 is a graph showing: • the profile of the proliferation index Nt/N0 of the H322 cells after exposure with the calix[4]arene of the formula (2) with respect to the time (i.e. the curve entitled “calix[4]arene (2)”), • the profile of the proliferation index Nt/N0 of the H322 cells without any exposure with the calix[4]arene of the formula (2) with respect to the time (i.e. the curve entitled “untreated”).

[3] = system: PC9 human lung cancer cells; assay: MTS cytotoxicity assay on PC9; format: cell-based; settings: PC9, 72 hours of treatment
Description: PC9 human lung cancer cells were seeded in 96-well plates together with the calix[4]arene of the formula (2). Cells were grown in RPMI-1640 supplemented with GlutaMAX™ (Gibco™) and fetal calf serum (FCS, 10%) and treated with a broad range of concentrations of the calix[4]arene of the formula (2). After 72 hours of treatment, the cytotoxicity was measured by means of the IC50 value, using the kit “CellTiter 96R AQuous One Solution Cell Proliferation Assay (MTS)” from Promega™. Following 30 minutes of incubation with the MTS reagent, the endpoint measurements were done in triplicate at 485 nm, using a fluorescence plate reader.
PC9 human lung cancer cells were seeded in 96-well plates together with the 2nd comparative example of the formula (XI). Cells were grown in RPMI-1640 supplemented with GlutaMAX™ (Gibco™) and fetal calf serum (FCS, 10%) and treated with a broad range of concentrations of the compound of the 2nd comparative example of the formula (XI). After 72 hours of treatment, the cytotoxicity was measured by means of the IC50 value, using the kit “CellTiter 96R AQuous One Solution Cell Proliferation Assay (MTS)” from Promega™. Following 30 minutes of incubation with the MTS reagent, the endpoint measurements were done in triplicate at 485 nm, using a fluorescence plate reader. […]

[4] = Ag^+ transport into liposomes with encapsulated BCS; settings: after 100 s, silver gradient of 50 μM, 1:1000 transporter to lipid ratio, added from DMSO
Description: Liposomes with BCS encapsulated were prepared as described above in the part entitled “II—C—1—Determination of the transport of Cu^+by the examples of calix[4]arenes” and measurements were performed as described in this part.
A Ag^+ solution was prepared by dissolving AgNO3 in a phosphate buffer at 3.05 mM concentration. After the first 30 seconds of the experiment, 50 μL of the Ag^+ solution was added to 3 mL of liposomes, resulting in a silver gradient of 50 μM. The fluorescence level was monitored for 600 seconds after the addition of the copper solution.
When a solution of DMSO with the calix[4]arene of the formula (2) was added to the liposomes (5 μL, to obtain a 1:1000 transport to lipid ratio) the decrease in fluorescence intensity of BCS was much faster (F/F0=0.55 after 100 s) compared to when DMSO without calix[4]arene of the formula (2) (5 μL) was added (F/F0=0.85 after 100 s).

[5] = system: PC9 human lung cancer cell line; assay: Inhibition of PC9 cell proliferation (cell count); format: cell-based; settings: 3 μM, until 72 hours
Description: The inhibition of a PC9 human lung cancer cell line proliferation by the calix[4]arene of the formulation (2) was determined by exposure of said PC9 human lung cancer cell line to a concentration of 3 μM of the compound of the formula (2) until 72 hours. The absolute number of cells were counted in the treated and untreated conditions before treatment (N0) and after 72 hours (Nt).
The FIG. 2 is a graph showing: • the profile of the proliferation index Nt/N0 of the PC9 cells after exposure with the calix[4]arene of the formula (2) with respect to the time (i.e. the curve entitled “calix[4]arene (2)”), • the profile of the proliferation index Nt/N0 of the PC9 cells without any exposure with the calix[4]arene of the formula (2) with respect to the time (i.e. the curve entitled “untreated”).

CCCOc1c2cccc1Cc1cccc(c1OCc1nccn1C)Cc1cccc(c1OCCC)Cc1cccc(c1OCc1nccn1C)C2 [(2)]
viability at 0.1 µM [1]: 99.9% | viability at 0.5 µM [1]: 93.1% | viability at 1 µM [1]: 75.8% | viability at 1.5 µM [1]: 24.4% | proliferation index Nt/N0 (FIG. 3) [2]: clearly inhibits the proliferation | IC50 [3]: 2060 nM | F/F0 (fluorescence intensity of BCS) [4]: 0.55 | proliferation index Nt/N0 (FIG. 2) [5]: clearly inhibits the proliferation
